Columns and labels:
HIV-1 protease NL4-3 = target: T1, HIV-1 protease NL4-3 (Human immunodeficiency virus type 1 group M subtype B, UniProt P12497, Q495K); assay: HIV-1 protease inhibition (FRET substrate cleavage), NL4-3 (WT); type: biochemical; settings: FRET substrate I, 0.1 M sodium acetate, 1.0 M NaCl, 1.0 mM EDTA, 1.0 mM DTT, 10% DMSO, 1 mg/mL BSA, pH 4.7, fluorescence 340/490 nm, read-out: IC50 of HIV-1 protease inhibitors
T1 construct: made in house; host or cells: E. coli (pET21b)
Protocol: (§1) The HIV-1 protease reaction buffer was 0.1 M sodium acetate, 1.0 M sodium chloride, 1.0 mM ethylenediaminetetraacetic acid (EDTA), 1.0 mM DTT, 10% dimethylsulfoxide (DMSO), and 1 mg/mL bovine serum albumin (BSA) at pH 4.7. The protease concentration was adjusted to a substrate cleavage velocity of 5 Relative Fluorescence Units (RFU)/min in the absence of regular substrate. […] Upon the addition of the HIV-1 protease, the fluorescent signal emitted through the cleavage of the FRET substrate was recorded using SpectraMax M5 (Molecular Devices, Sunnyvale, CA, USA) at an excitation wavelength of 340 nm and an emission wavelength of 490 nm. The average velocity of FRET substrate cleavage in RFU/min was calculated based on fluorescent signal at 30 time point over 30 min.

HIV-1 protease MDR 807 = target: T2, HIV-1 protease MDR 807 (Human immunodeficiency virus type 1 group M subtype B, UniProt P12497, A559V/G536V/I542T/I550V/I581L/L498I/L551Q/M534I/Q495K/Q549N/R529K/T562A/V565I/V570A); assay: HIV-1 protease inhibition (FRET substrate cleavage), MDR 807; type: biochemical; settings: FRET substrate I, 0.1 M sodium acetate, 1.0 M NaCl, 1.0 mM EDTA, 1.0 mM DTT, 10% DMSO, 1 mg/mL BSA, pH 4.7, fluorescence 340/490 nm, read-out: IC50 of HIV-1 protease inhibitors
T2 construct: made in house; host or cells: E. coli (pET21b)
Protocol: as §1

HIV-1 protease MDR 769 = target: T3, HIV-1 protease MDR 769 (Human immunodeficiency virus type 1 group M subtype B, UniProt P12497, A559V/I542V/I550V/I572V/L498I/L551P/L578M/M524V/M534L/Q495K/V570A); assay: HIV-1 protease inhibition (FRET substrate cleavage), MDR 769; type: biochemical; settings: FRET substrate I, 0.1 M sodium acetate, 1.0 M NaCl, 1.0 mM EDTA, 1.0 mM DTT, 10% DMSO, 1 mg/mL BSA, pH 4.7, fluorescence 340/490 nm, read-out: IC50 of HIV-1 protease inhibitors
T3 construct: made in house; host or cells: E. coli (pET21b)
Protocol: as §1

HIV-1 protease MDR 1385 = target: T4, HIV-1 protease MDR 1385 (Human immunodeficiency virus type 1 group M subtype B, UniProt P12497, A559V/I581L/L498F/L551P/L577M/L578M/M524I/M534I/N525D/Q495K/R545K/V570T); assay: HIV-1 protease inhibition (FRET substrate cleavage), MDR 1385; type: biochemical; settings: FRET substrate I, 0.1 M sodium acetate, 1.0 M NaCl, 1.0 mM EDTA, 1.0 mM DTT, 10% DMSO, 1 mg/mL BSA, pH 4.7, fluorescence 340/490 nm, read-out: IC50 of HIV-1 protease inhibitors
T4 construct: made in house; host or cells: E. coli (pET21b)
Protocol: as §1

HIV-1 protease MDR 3761 = target: T5, HIV-1 protease MDR 3761 (Human immunodeficiency virus type 1 group M subtype B, UniProt P12497, A559I/G561T/I503V/I552V/I572V/I581L/K508I/L498I/L507I/L551P/L578M/M534I/P567S/Q495K/T500A); assay: HIV-1 protease inhibition (FRET substrate cleavage), MDR 3761; type: biochemical; settings: FRET substrate I, 0.1 M sodium acetate, 1.0 M NaCl, 1.0 mM EDTA, 1.0 mM DTT, 10% DMSO, 1 mg/mL BSA, pH 4.7, fluorescence 340/490 nm, read-out: IC50 of HIV-1 protease inhibitors
T5 construct: made in house; host or cells: E. coli (pET21b)
Protocol: as §1

[1] = system: four MDR protease variants; settings: four clinical MDR isolates, enzyme inhibition assays, relative to NL4-3 (WT)
Source text: HIV protease Forster Resonance Energy Transfer (FRET) substrate I used in the IC50 determination and substrate interference was purchased from AnaSpec, Inc. (Fremont, CA, USA). The US FDA-approved HIV-1 protease inhibitors were kindly provided by the NIH AIDS Research and Reference Reagent Program (www.aidsreagent.org). The CA/p2 pseudopeptide with a reduced scissile peptide bond [-ψ(CH2NH)-] was synthesized in the Department of Chemistry, Wayne State University. The nine substrate hepta-peptides were purchase from SynBioSci Corporation, Livermore, CA, USA. […] The IC50 determination was described previously. […] The protease concentration was adjusted to a substrate cleavage velocity of 5 Relative Fluorescence Units (RFU)/min in the absence of regular substrate. […] Upon the addition of the HIV-1 protease, the fluorescent signal emitted through the cleavage of the FRET substrate was recorded using SpectraMax M5 (Molecular Devices, Sunnyvale, CA, USA) at an excitation wavelength of 340 nm and an emission wavelength of 490 nm. The average velocity of FRET substrate cleavage in RFU/min was calculated based on fluorescent signal at 30 time point over 30 min. In the control experiment, the average velocity of FRET substrate cleavage was determined in the absence of regular substrates. […]

SMILES | IC50 (HIV-1 protease NL4-3) | IC50 (HIV-1 protease MDR 807) | IC50 (HIV-1 protease MDR 769) | IC50 (HIV-1 protease MDR 1385) | IC50 (HIV-1 protease MDR 3761) | resistance of MDR variants to inhibitors (in words) [1]
CC(C)CN(C[C@@H](O)[C@H](Cc1ccccc1)NC(=O)O[C@H]1CCOC1)S(=O)(=O)c1ccc(N)cc1 [APV, amprenavir] | 0.43 nM | 2.9 nM | 4.8 nM | 3.1 nM | 4.1 nM | –
COC(=O)N[C@H](C(=O)N[C@@H](Cc1ccccc1)[C@@H](O)CN(Cc1ccc(-c2ccccn2)cc1)NC(=O)[C@@H](NC(=O)OC)C(C)(C)C)C(C)(C)C [ATV, atazanavir] | 0.19 nM | 7.6 nM | 2.9 nM | 4.6 nM | 2.2 nM | –
Cc1cccc(C)c1OCC(=O)N[C@@H](Cc1ccccc1)[C@@H](O)C[C@H](Cc1ccccc1)NC(=O)[C@H](C(C)C)N1CCCNC1=O [LPV, lopinavir] | – | – | – | – | – | lower relative resistance
Cc1c(O)cccc1C(=O)N[C@@H](CSc1ccccc1)[C@H](O)CN1C[C@H]2CCCC[C@H]2C[C@H]1C(=O)NC(C)(C)C [NFV, nelfinavir] | 1.6 nM | 210 nM | 110 nM | 230 nM | 430 nM | –
CCC[C@@]1(CCc2ccccc2)CC(O)=C([C@H](CC)c2cccc(NS(=O)(=O)c3ccc(C(F)(F)F)cn3)c2)C(=O)O1 [TPV, tipranavir] | 0.24 nM | 0.63 nM | 0.65 nM | 2.8 nM | 0.63 nM | –
